pEC50, pIC50: −log10 of the molar value.
Experiments:
Assay type in all cases: cell-based
[1] = system: replicon cells; assay: Cell toxicity assay (MTS) on replicon cells; settings: for CC50: MTS assay on replicon cells, read-out: CC50: drug dose necessary to reduce the MTS signal to 50% of that of no drug control; for TI: CC50/EC50 in 5-2 cells: ratio CC50/EC50, 5-2 cells
Protocol: (§1) Cell toxicity assay. The toxicity of compounds on the replicon cells were measured by MTS assay following manufacturer's instructions (Promega). Briefly, 20 μl of CellTiter 96®RAQueous One Solution Reagent were added to each well of the 96-well plate containing 100 μl of culture medium. The plates were incubated for 30-60 minutes before reading OD by DYNEX MRX.
(§2) IC50: drug dose necessary to reach a 2-fold decrease in replicon RNA level. IC90: drug dose necessary to reach a 10-fold decrease in replicon RNA level EC50: drug dose necessary to reach a 2-fold decrease in luciferase signal. EC90: drug dose necessary to reach a 10-fold reduction in luciferase signal. CC50: drug dose necessary to reduce the MTS signal to 50% of that of no drug control TI: CC50/EC50 in 5-2 cells. All units are μM.

[2] = system: replicon (luciferase signal), luciferase replicon cell line; assay: Dose-response luciferase assay in replicon cells; settings: 2 days incubation, 0.5% DMSO, 10% fetal bovine serum; for pEC50: 48 h, read-out: EC50: drug dose necessary to reach a 2-fold decrease in luciferase signal
Protocol: (§3) Cell Culture. Cells of the luciferase replicon cell line (Vrolijk et al., J. Virol. Methods 110:201-209 (2003)) was grown in Dulbecco's minimal essential medium (DMEM) supplemented with 2 mM glutamine, non-essential amino acids (NEAA), 10 mM HEPES, 0.075% sodium bicarbonate, 100 U/ml penicillin and 100 μg/mL streptomycin, and 10% fetal bovine serum. To maintain the selection for replicon, 0.3 mg/mL of G418 were added to the culture media.
Dose-Response and Luciferase Assays. Replicon cells were seeded at 5000 cells/well in 96-well collagen 1-coated Biocoat plates (Becton Dickinson; Palo Alto, Calif.). Twenty-four hrs post-seeding, compounds (see Table 1 below) were added to replicon cells. The final concentration of DMSO was 0.5%, fetal bovine serum was 10%, and G418 was not added. The cells were incubated with the compounds for 2 days, at which point the cells were washed with PBS and lysed in 40 μl Glo Lysis Buffer (Promega; Madison, Wis.). 20 μl of lysates were mixed with 100 μl Luciferase Assay Reagent (Promega) and read on a Microtiter Plate Luminometer MLX (DYNEX Technologies; Chantilly, Va.). The fold of reduction in luciferase signal compared to no compound control was plotted against drug concentration and fitted to the sigmoid dose response model using PRISM software (Graphpad Software Inc.; San Diego, Calif.).
as §2

[3] = system: replicon RNA (amplicon in NS5B), luciferase replicon cell line; assay: Taqman assay of replicon RNA level in replicon cells; settings: Taqman real-time PCR, 2 days incubation; for pIC50: 48 h, GADPH RNA as endogenous control, read-out: IC50: drug dose necessary to reach a 2-fold decrease in replicon RNA level
Protocol: as §3
Taqman Assay Method. Replicon cells were seeded at 4000 cells/well in 96-well collagen 1-coated Biocoat Plates (Becton Dickinson). Twenty-four hours post-seeding, compounds were added to replicon cells. The final concentration of DMSO was 0.5%, fetal bovine serum was 10%, and no G418 was added. Cells were incubated with compounds for 2 days, at which point the cells were washed with PBS and lysed in 1× cell lysis buffer (Ambion). The replicon RNA level was measured using real time PCR (Taqman assay). The amplicon was located in NS5B. The PCR primers were 5B.2F, ATGGACAGGCGCCCTGA; 5B.2R, […]; the probe sequence was FAM-labeled CACGCCATGCGCTGCGG. GADPH RNA was used as an endogenous control and was amplified in the same reaction as NS5B (multiplex PCR) using primers and VIC-labeled probe recommended by the manufacturer (PE Applied Biosystem). The real-time RT-PCR reactions were run on the ABI PRISM 7900HT Sequence Detection System using the following program: 48° C. for 30 minutes, 95° C. for 10 minutes, 40 cycles of 95° C. for 15 seconds, 60° C. for 1 minute. The ACT values (CT5B-CTGADPH) were plotted against drug concentration and fitted to the sigmoid dose response model using SAS system (SAS Institute, Inc.) or PRISM software (Graphpad Software, Inc.). IC50 was the drug dose response necessary to achieve an increase of 1 in ΔCT over the projected baseline. IC90 was the drug dose response necessary to achieve an increase of 3.2 over the baseline. All Taqman reagents were from PE Applied Biosystem.
as §2

[4] = Cell toxicity assay (MTS) on replicon cells; settings: human; MTS assay on replicon cells; read-out: CC50: drug dose necessary to reduce the MTS signal to 50% of that of no drug control
Protocol: as §1, §2

Structure (SMILES)	CC50 [1]	TI: CC50/EC50 in 5-2 cells [1]	EC90: drug dose necessary to reach a 10-fold reduction in luciferase signal [2]	IC90: drug dose necessary to reach a 10-fold decrease in replicon RNA level [3]	CC50 at 2 days [4]	pEC50 [2]	pIC50 [3]
CC(C)N(C=Nc1ccn([C@@H]2O[C@H](CO)[C@@H](O)[C@@H]2O)c(=O)n1)C(C)C [X, N^4-[(Diisopropylamino)methylene]arabinocytidine]	> 10 µM	>300	2 μM	>10 μM			
Nc1ccn([C@@H]2O[C@H](CO)[C@@H](O)[C@@H]2O)c(=O)n1 [Cytarabine, reference compound]		>200	4 μM	>10 μM	> 10 µM	7.30	~5.00
O=c1nc(N=CN2CCCC2)ccn1[C@@H]1O[C@H](CO)[C@@H](O)[C@@H]1O [XIII, N^4-[Pyrrolidinomethylene]arabinocytidine]	> 10 µM	>100	5 μM	>10 μM			
O=c1nc(N=CN2CCCCC2)ccn1[C@@H]1O[C@H](CO)[C@@H](O)[C@@H]1O [XI, N^4-[Piperidinomethylene]arabinocytidine]	> 10 µM	>100	8 μM	>10 μM			
O=c1nc(/N=C/N2CCOCC2)ccn1[C@@H]1O[C@H](CO)C(O)C1O (stereo in doubt) [XII, N^4-[Morpholinomethylene]arabinocytidine]		>500	1.5 μM	>10 μM	> 10 µM	7.70	< 5.00
NC(=O)c1ncn([C@@H]2O[C@H](CO)[C@@H](O)[C@H]2O)n1 [Ribavirin, 1-β-D-ribofuranosyl-1H-1,2,4-triazole-3-carboxamide, reference compound]		~25	80 μM	not reached	~500 µM	4.70	4.00 to 4.40

Reference: patent US7816339B2, “Treatments for Flaviviridae virus infection” (priority 2005, dated 2010)
